Source: the SangsterLogP compilation

Assay: method code SF-AS, from DOI: 10.1021/jo00922a017
Conditions: pH 1.0

logD	SMILES
3	COc1ccc(NS(=O)(=O)C(F)(F)F)cc1
2.25	O=S(=O)(CF)Nc1ccc(Cl)cc1
3.25	O=S(=O)(Nc1ccc(F)cc1)C(F)(F)F
2.84	O=S(=O)(Nc1ccc(Cl)cc1)C(F)F
3.88	O=S(=O)(Nc1ccc(Cl)cc1Cl)C(F)(F)F
1.99	CS(=O)(=O)c1ccc(NS(=O)(=O)C(F)(F)F)cc1
3.96	O=S(=O)(Nc1ccc(Cl)cc1)C(F)(F)F
4	O=S(=O)(Nc1cccc(Cl)c1)C(F)(F)F
3.6	Cc1ccc(NS(=O)(=O)C(F)(F)F)cc1
1.85	CS(=O)(=O)Nc1ccc(Cl)cc1
4.39	O=S(=O)(Nc1ccc(I)cc1)C(F)(F)F
4.47	O=S(=O)(Nc1ccc(C(F)(F)F)cc1)C(F)(F)F
1.95	O=S(=O)(Nc1ccccc1)C(F)F
2.83	CC(=O)c1ccc(NS(=O)(=O)C(F)(F)F)cc1

The next lines start with the compound.

SMILES	logD
CC(=O)c1cccc(NS(=O)(=O)C(F)(F)F)c1	2.78
O=S(=O)(Nc1ccc(F)cc1F)C(F)(F)F	3.06
O=S(=O)(Nc1ccccc1)C(F)(F)F	3.05
O=C(c1ccccc1)c1ccc(NS(=O)(=O)C(F)(F)F)cc1	4.28
O=S(=O)(CF)Nc1ccccc1	1.35
O=S(=O)(Nc1cccc(F)c1)C(F)(F)F	3.42
O=S(=O)(Nc1cccc(Br)c1)C(F)(F)F	3.82
CS(=O)(=O)c1cccc(NS(=O)(=O)C(F)(F)F)c1	1.85
O=S(=O)(Nc1cccc(C(F)(F)F)c1)C(F)(F)F	4.5
O=S(=O)(Nc1ccc(-c2ccccc2)cc1)C(F)(F)F	4.97
O=S(=O)(Nc1cccc(O)c1)C(F)(F)F	2.51
COc1cccc(NS(=O)(=O)C(F)(F)F)c1	3.13
